In patent US20120295907A1, “INSECTICIDAL COMPOUNDS” (SYNGENTA CROP PROTECTION, LLC, priority 2009, published 2012):
Like-named read-outs stand apart in the source and are kept apart here.

What was measured:
Assay type in all cases: in vivo
[1] = tested on: Plutella xylostella; experiment: Plutella xylostella (Diamond Back Moth) artificial diet MTP test; conditions: 144 h, 200 ppm (concentration in well 18 ppm), L2 larvae, 6 days, larval mortality, growth regulation
[2] = tested on: Tetranychus urticae; experiment: Tetranychus urticae (Two-Spotted Spider Mite) bean leaf disc spray test; conditions: foliar, 192 h, read-out: control of Tetranychus urticae
[3] = tested on: Diabrotica balteata; experiment: Diabrotica balteata (Corn Root Worm) artificial diet MTP test; conditions: 120 h, 200 ppm (concentration in well 18 ppm), L2 larvae, 5 days, larval mortality, growth regulation
[4] = tested on: Heliothis virescens; experiment: Heliothis virescens (Tobacco Budworm) egg test on artificial diet; conditions: 96 h, 200 ppm (concentration in well 18 ppm), eggs 0-24 h old on artificial diet, 4 days, egg mortality, larval mortality, growth regulation
[5] = tested on: Spodoptera littoralis; experiment: Spodoptera littoralis (Egyptian Cotton Leafworm) cotton leaf disc spray test; conditions: foliar, 72 h, 200 ppm spray on cotton leaf discs, L1 larvae, mortality, feeding behavior, growth regulation 3 DAT
[6] = 200 ppm spray on bean leaf discs, mite populations of mixed ages, 8 days, egg, larval and adult mortality

Measured: pest or weed control at 200 ppm

COc1c(NC(=O)c2c(C)cc(Br)cc2Cl)cccc1C(=O)Nc1c(Cl)cc(C(F)(C(F)(F)F)C(F)(F)C(F)(F)F)cc1Br (centres unmarked) [B159]
≥ 80%: [1] | [2]; [6] | [3] | [4] | [5]

COc1c(NC(=O)c2ccc(C#N)cc2Cl)cccc1C(=O)Nc1c(Cl)cc(C(F)(C(F)(F)F)C(F)(F)C(F)(F)F)cc1Br (centres unmarked) [B198]
≥ 80%: [1] | [2]; [6] | [4] | [5]

COc1c(NC(=O)c2ccc(Br)cc2C)cccc1C(=O)Nc1c(Cl)cc(C(F)(C(F)(F)F)C(F)(F)C(F)(F)F)cc1Br (centres unmarked) [B138]
≥ 80%: [1] | [2]; [6] | [4] | [5]

COc1c(NC(=O)c2ccc(Br)c(OC)c2C)cccc1C(=O)Nc1c(Cl)cc(C(F)(C(F)(F)F)C(F)(F)C(F)(F)F)cc1Br (centres unmarked) [B139]
≥ 80%: [1] | [2]; [6] | [4] | [5]

COc1c(NC(=O)c2cccc([N+](=O)[O-])c2)cccc1C(=O)Nc1c(Cl)cc(C(F)(C(F)(F)F)C(F)(F)C(F)(F)F)cc1Br (centres unmarked) [B193]
≥ 80%: [1] | [2]; [6] | [4] | [5]

CCc1cc(C(F)(C(F)(F)F)C(F)(F)F)cc(C)c1NC(=O)c1cccc(NC(=O)c2c(F)cc(C#N)cc2F)c1OC [J2]
≥ 80%: [1] | [2]; [6] | [3] | [4]

COc1c(NC(=O)c2sc(C(F)(F)F)nc2C)cccc1C(=O)Nc1c(Cl)cc(C(F)(C(F)(F)F)C(F)(F)C(F)(F)F)cc1Br (centres unmarked) [B104]
≥ 80%: [1] | [2]; [6] | [4] | [5]

COc1c(NC(=O)c2ccc([N+](=O)[O-])cc2C)cccc1C(=O)Nc1c(Cl)cc(C(F)(C(F)(F)F)C(F)(F)C(F)(F)F)cc1Br (centres unmarked) [B196]
≥ 80%: [1] | [2]; [6] | [5]

COc1c(NC(=O)c2ccc([N+](=O)[O-])cc2Cl)cccc1C(=O)Nc1c(Cl)cc(C(F)(C(F)(F)F)C(F)(F)C(F)(F)F)cc1Br (centres unmarked) [B11]
≥ 80%: [1] | [2]; [6] | [4] | [5]

COc1c(NC(=O)c2ccc([N+](=O)[O-])cc2Cl)cccc1C(=O)Nc1c(C)cc(C(F)(C(F)(F)F)C(F)(F)C(F)(F)F)cc1C (centres unmarked) [F28]
≥ 80%: [2]; [6] | [3] | [4] | [5]

COc1c(NC(=O)c2ccc([N+](=O)[O-])c([N+](=O)[O-])c2)cccc1C(=O)Nc1c(Cl)cc(C(F)(C(F)(F)F)C(F)(F)C(F)(F)F)cc1Br (centres unmarked) [B195]
≥ 80%: [1] | [2] | [4] | [5]

COc1c(NC(=O)c2ccc(F)cc2F)cccc1C(=O)Nc1c(Cl)cc(C(F)(C(F)(F)F)C(F)(F)C(F)(F)F)cc1Br (centres unmarked) [B23]
≥ 80%: [1] | [2]; [6] | [4] | [5]

COc1c(NC(=O)c2ccc(OC(F)(F)F)cc2)cccc1C(=O)Nc1c(Cl)cc(C(F)(C(F)(F)F)C(F)(F)C(F)(F)F)cc1Br (centres unmarked) [B13]
≥ 80%: [1] | [2]; [6] | [4] | [5]

COc1c(NC(=O)c2ccc(OC(F)(F)F)cc2)cccc1C(=O)Nc1c(C)cc(C(F)(C(F)(F)F)C(F)(F)C(F)(F)F)cc1C (centres unmarked) [F5]
≥ 80%: [1] | [2]; [6] | [4] | [5]
